For data set [1], the system named is Bmi-1 protein. In words: Sandwich ELISA Assay (Bmi-1 protein level in HT-1080 cells after compound treatment). Type of data set: cell-based. A digest of the protocol: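 HT-1080 cells exposed to compounds for 40–48 h at 37 °C (0.5% DMSO final), then lysed. Bmi-1 in lysates measured by sandwich ELISA (mouse monoclonal capture, rabbit anti-Bmi-1 detection, HRP anti-rabbit, TMB), read at OD450 with OD570 reference against a recombinant Bmi-1 standard curve (0–8000 pg/mL).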

Where [2] appears, read: read-out: ELISA EC50 value for Bmi-1 protein, Table 1, Bmi-1 sandwich ELISA.
Setting [3] is: Table 1, Bmi-1 sandwich ELISA, read-out: ELISA EC50 value for Bmi-1 protein.

Structures are written as SMILES. Where two headings read alike, the source gives them in different places.

For the compound `Cc1nc2ccc(F)cn2c1-c1cncc(Nc2ccccc2)n1` [compound 590, 6-(6-fluoro-2-methylimidazo[1,2-a]pyridin-3-yl)-N-phenylpyrazin-2-amine], the melting point was in the range of 216 to 218 °C. Moreover, the EC50 in data set [1] (setting [2]) was 10 to 100 nM.
The compound `Cc1nc(Nc2cccc(-c3c(C(F)(F)F)nc4ccccn34)n2)sc1C` [compound 149, N-(4,5-dimethyl-1,3-thiazol-2-yl)-6-[2-(trifluoromethyl)imidazo[1,2-a]pyridin-3-yl]pyridin-2-amine] yielded a melting point of 227 to 228 °C. Besides, the EC50 in data set [1] (setting [3]) is 100 to 3000 nM.
For `COc1ccc(Nc2cncc(-c3cccc4nc(C5CCC5)cn34)n2)cc1` [compound 116, 6-(2-cyclobutylimidazo[1,2-a]pyridin-5-yl)-N-(4-methoxyphenyl)pyrazin-2-amine], the melting point lay in the range of 223 to 225 °C. The EC50 in data set [1] (setting [3]) was 10 to 100 nM.
For `Cc1nc2ccc(F)cn2c1-c1cncc(Nc2ccc(OC(F)F)cc2)n1` [compound 245, N-[4-(difluoromethoxy)phenyl]-6-(6-fluoro-2-methylimidazo[1,2-a]pyridin-3-yl)pyrazin-2-amine], in that order: 171 to 173 °C and 1 to 10 nM.
As to `Fc1ccc2nc(C(F)F)n(-c3cncc(Nc4ccc(C(F)(F)F)cc4)n3)c2c1` [compound 486, 6-[2-(difluoromethyl)-6-fluoro-1H-benzimidazol-1-yl]-N-[4-(trifluoromethyl)phenyl]pyrazin-2-amine], the melting point lay in the range of 197 to 199 °C. In addition, the EC50 in data set [1] (setting [3]) lay within 10 to 100 nM.
As for `CCS(=O)(=O)n1nc(C)c(-c2cncc(Nc3ccc(C(F)(F)F)cc3)n2)c1C` [compound 176, 6-[1-(ethylsulfonyl)-3,5-dimethyl-1H-pyrazol-4-yl]-N-[4-(trifluoromethyl)phenyl]pyrazin-2-amine], the melting point was in the range of 70 to 71 °C. Further, in data set [1] (setting [3]), the half-maximal effective concentration (EC50) was 10 to 100 nM.
`FC(F)Oc1ccc(Nc2cncc(-c3c(C4CC4)nc4ccccn34)n2)cc1` [compound 130, 6-(2-cyclopropylimidazo[1,2-a]pyridin-3-yl)-N-[4-(difluoromethoxy)phenyl]pyrazin-2-amine] registered a melting point of 208 to 210 °C. Also, the EC50 in data set [1] (setting [3]) lay within 1 to 10 nM.
For `Cc1cccc(Nc2cncc(-n3c(C)nc4ccc(F)cc43)n2)c1` [compound 560, 6-(6-fluoro-2-methyl-1H-benzimidazol-1-yl)-N-(3-methylphenyl)pyrazin-2-amine], in that order: 173 to 174 °C and 100 to 3000 nM.
For `Cc1nn(Cc2ccncc2)c(C)c1-c1cncc(Nc2ccc(C(F)(F)F)cc2)n1` [compound 403, 6-[3,5-dimethyl-1-(pyridin-4-ylmethyl)-1H-pyrazol-4-yl]-N-[4-(trifluoromethyl)phenyl]pyrazin-2-amine], in that order: 66 to 67 °C and 10 to 100 nM.
For `FC(F)(F)Oc1ccc(Nc2cncc(-c3c(C4CC4)nc4ccc(C(F)(F)F)cn34)n2)cc1` [compound 252, 6-[2-cyclopropyl-6-(trifluoromethyl)imidazo[1,2-a]pyridin-3-yl]-N-[4-(trifluoromethoxy)phenyl]pyrazin-2-amine], in that order: 213 to 215 °C and 100 to 3000 nM.
`N#Cc1cc(Nc2ccc(C(F)(F)F)cc2)nc(-n2c(C3CC3)nc3ccc(F)cc32)c1` [compound 410, 2-(2-cyclopropyl-6-fluoro-1H-benzimidazol-1-yl)-6-{[4-(trifluoromethyl)phenyl]amino}pyridine-4-carbonitrile] gave a melting point of 291 to 293 °C. Further, the EC50 in data set [1] (setting [3]) was 10 to 100 nM.
Regarding `Cc1nn(CC(F)(F)F)c(C)c1-c1cncc(Nc2ccc(C(F)(F)F)cc2)n1` [compound 253, 6-[3,5-dimethyl-1-(2,2,2-trifluoroethyl)-1H-pyrazol-4-yl]-N-[4-(trifluoromethyl)phenyl]pyrazin-2-amine], the melting point lay in the range of 90 to 91 °C. Moreover, the EC50 in data set [1] (setting [2]) was 1 to 10 nM.
As to `Fc1cc(F)c2nc(C3CC3)n(-c3cncc(Nc4ccc(OC(F)(F)F)cc4)n3)c2c1` [compound 463, 6-(2-cyclopropyl-4,6-difluoro-1H-benzimidazol-1-yl)-N-[4-(trifluoromethoxy)phenyl]pyrazin-2-amine], the melting point lay within 218 to 220 °C. For the same compound, the EC50 in data set [1] (setting [3]) is 100 to 3000 nM.
`Cc1nn(C)c(C)c1-c1cccc(Nc2ccc(OC(F)F)cc2)n1` [compound 146, N-[4-(difluoromethoxy)phenyl]-6-(1,3,5-trimethyl-1H-pyrazol-4-yl)pyridin-2-amine]: the melting point is 71 to 72 °C. For the same compound, the EC50 in data set [1] (setting [3]) lay in the range of 10 to 100 nM.
For `Cc1nc2ccc(F)cn2c1-c1cncc(Nc2ccc(OC(F)(F)F)cc2)n1` [compound 246, 6-(6-fluoro-2-methylimidazo[1,2-a]pyridin-3-yl)-N-[4-(trifluoromethoxy)phenyl]pyrazin-2-amine], in that order: 163 to 165 °C and 1 to 10 nM.
For `Cc1ccc(Nc2cncc(-c3c(C)noc3C)n2)cc1` [compound 635, 6-(3,5-dimethyl-1,2-oxazol-4-yl)-N-(4-methylphenyl)pyrazin-2-amine], in that order: 186 to 188 °C and 1 to 10 nM.
Regarding `Nc1cc(Nc2ccc(OC(F)F)cc2)nc(-c2c(C3CC3)nc3ccc(F)cn23)c1` [compound 365, 6-(2-cyclopropyl-6-fluoroimidazo[1,2-a]pyridin-3-yl)-N^2-[4-(difluoromethoxy)phenyl]pyridine-2,4-diamine], the melting point was 185 to 186 °C. In addition, the EC50 in data set [1] (setting [3]) is 100 to 3000 nM.
For `Cc1csc(Nc2cccc(-c3c(C(F)(F)F)nc4ccccn34)n2)n1` [compound 148, N-(4-methyl-1,3-thiazol-2-yl)-6-[2-(trifluoromethyl)imidazo[1,2-a]pyridin-3-yl]pyridin-2-amine], in that order: 259 to 261 °C and 10 to 100 nM.
For `CCOC(=O)n1nc(C)c(-c2cncc(Nc3ccc(OC(F)F)cc3)n2)c1C` [compound 279, ethyl 4-(6-{[4-(difluoromethoxy)phenyl]amino}pyrazin-2-yl)-3,5-dimethyl-1H-pyrazole-1-carboxylate], in that order: 92 to 93 °C and 100 to 3000 nM.
For `NS(=O)(=O)Nc1cc(Nc2ccc(C(F)(F)F)cc2)nc(-c2c(C3CC3)nc3ccc(F)cn23)c1` [compound 368, N-[2-(2-cyclopropyl-6-fluoroimidazo[1,2-a]pyridin-3-yl)-6-{[4-(trifluoromethyl)phenyl]amino}pyridin-4-yl]sulfuric diamide], in that order: 158 to 160 °C and 100 to 3000 nM.
`NC(=O)Nc1cc(Nc2ccc(C(F)(F)F)cc2)nc(-c2c(C3CC3)nc3ccc(F)cn23)c1` [compound 369, 1-[2-(2-cyclopropyl-6-fluoroimidazo[1,2-a]pyridin-3-yl)-6-{[4-(trifluoromethyl)phenyl]amino}pyridin-4-yl]urea] came in with a melting point of 232 to 235 °C. Further, in data set [1] (setting [2]), the EC50 was in the range of 100 to 3000 nM.
Turning to `Fc1ccc2nc(C3CCC3)n(-c3cncc(Nc4ccc(C(F)(F)F)cc4)n3)c2c1` [compound 485, 6-(2-cyclobutyl-6-fluoro-1H-benzimidazol-1-yl)-N-[4-(trifluoromethyl)phenyl]pyrazin-2-amine], the melting point is 289 to 291 °C. For the same compound, in data set [1] (setting [3]), the EC50 fell in the range of 100 to 3000 nM.
`Cc1nc2c(F)cc(F)cn2c1-c1cc(C#N)cc(Nc2ccc(OC(F)F)c(F)c2)n1` [compound 444, 2-{[4-(difluoromethoxy)-3-fluorophenyl]amino}-6-(6,8-difluoro-2-methylimidazo[1,2-a]pyridin-3-yl)pyridine-4-carbonitrile] yielded a melting point of 238 to 241 °C. Further, the EC50 in data set [1] (setting [3]) was 10 to 100 nM.
For `Cc1nc2ccc(F)cn2c1-c1cc(C#N)cc(Nc2ccc(C(F)(F)F)c(F)c2)n1` [compound 312, 2-(6-fluoro-2-methylimidazo[1,2-a]pyridin-3-yl)-6-{[3-fluoro-4-(trifluoromethyl)phenyl]amino}pyridine-4-carbonitrile], in that order: 245 to 249 °C and 10 to 100 nM.
Consider `CCc1nn2ccc(F)cc2c1-c1cncc(Nc2ccc(C(F)(F)F)cc2)n1` [compound 551, 6-(2-ethyl-5-fluoropyrazolo[1,5-a]pyridin-3-yl)-N-[4-(trifluoromethyl)phenyl]pyrazin-2-amine], for which the melting point is 129 to 131 °C. Also, the EC50 in data set [1] (setting [3]) fell in the range of 100 to 3000 nM.
The compound `COc1ccc(Nc2cncc(-n3c(C)nc4ccc(F)cc43)n2)cc1` [compound 552, 6-(6-fluoro-2-methyl-1H-benzimidazol-1-yl)-N-(4-methoxyphenyl)pyrazin-2-amine] had a melting point of 184 to 186 °C. For the same compound, the EC50 in data set [1] (setting [3]) was < 1 nM.
The compound `Cc1nc2ccc(F)cc2n1-c1cc(C#N)cc(Nc2ccc(C(F)(F)F)cc2)n1` [compound 261, 2-(6-fluoro-2-methyl-1H-benzimidazol-1-yl)-6-{[4-(trifluoromethyl)phenyl]amino}pyridine-4-carbonitrile] displayed a melting point of 223 to 225 °C. In addition, the half-maximal effective concentration (EC50) in data set [1] (setting [3]) is 10 to 100 nM.
As for `Cc1nc2ccc(F)cc2n1-c1cncc(Nc2ccc(OC(F)F)c(F)c2)n1` [compound 320, N-[4-(difluoromethoxy)-3-fluorophenyl]-6-(6-fluoro-2-methyl-1H-benzimidazol-1-yl)pyrazin-2-amine], the melting point lay in the range of 230 to 231 °C. In data set [1] (setting [3]), the EC50 fell in the range of 10 to 100 nM.
In turn, `Cc1nc2ccc(F)cn2c1-c1cc(C#N)cc(Nc2ccc(Cl)cc2)n1` [compound 647, 2-[(4-chlorophenyl)amino]-6-(6-fluoro-2-methylimidazo[1,2-a]pyridin-3-yl)pyridine-4-carbonitrile] had a melting point of 148 to 151 °C. Besides, in data set [1] (setting [3]), the EC50 was in the range of 10 to 100 nM.

For the origin of these results see patent US10584115B2, “Substituted pyridine and pyrazine BMI-1 inhibitors” (PTC Therapeutics, Inc., priority 2013, dated 2020).
